Assay results from paper PMC10179937, “Cytotoxic Activity, Topoisomerase I Inhibition and In Silico Studies of New Sesquiterpene-aryl Ester Derivatives of (-) Drimenol” (Molecules, 2023).
Like-named read-outs stand apart in the source and are kept apart here.

Experiments:
[1] = biological target: T1, Human recombinant Topoisomerase I (Homo sapiens, UniProt P11387); experiment: Topoisomerase I activity, relaxation of supercoiled DNA (pEGFP-N1); type: biochemical; details: 50 μM, agarose gel, result in words
T1 construct: purchased Sigma-Aldrich
T1 sequence (P11387 1-765): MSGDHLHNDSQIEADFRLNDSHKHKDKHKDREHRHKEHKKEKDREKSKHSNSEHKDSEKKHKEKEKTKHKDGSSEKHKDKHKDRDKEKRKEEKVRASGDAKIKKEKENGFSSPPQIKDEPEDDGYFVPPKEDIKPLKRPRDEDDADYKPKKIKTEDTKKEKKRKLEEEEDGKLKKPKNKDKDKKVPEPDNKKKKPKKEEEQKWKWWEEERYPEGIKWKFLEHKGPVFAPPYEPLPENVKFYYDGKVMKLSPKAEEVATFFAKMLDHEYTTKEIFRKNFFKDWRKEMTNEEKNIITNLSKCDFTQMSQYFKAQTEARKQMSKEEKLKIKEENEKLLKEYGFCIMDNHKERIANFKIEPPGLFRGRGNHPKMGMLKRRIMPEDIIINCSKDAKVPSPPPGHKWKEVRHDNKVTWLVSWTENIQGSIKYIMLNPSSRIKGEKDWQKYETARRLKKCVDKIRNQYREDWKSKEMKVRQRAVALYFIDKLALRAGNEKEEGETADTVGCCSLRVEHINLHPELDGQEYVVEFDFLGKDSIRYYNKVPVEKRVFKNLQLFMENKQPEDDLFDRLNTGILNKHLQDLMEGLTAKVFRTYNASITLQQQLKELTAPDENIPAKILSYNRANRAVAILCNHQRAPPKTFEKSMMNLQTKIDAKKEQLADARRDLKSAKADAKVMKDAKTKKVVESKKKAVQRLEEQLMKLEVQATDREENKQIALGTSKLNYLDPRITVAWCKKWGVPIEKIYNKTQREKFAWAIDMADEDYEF
Procedure: In this experiment, daunorubicin was used as control due to this compound being reported early as a TOPI inhibitor [31]. First, the optimal concentration of these compounds for the DNA relaxation assays was established.
Topoisomerase I activity was assayed by the relaxation of supercoiled DNA (pEGFP-N1) as the manufacturer’s instructions indicated. Human recombinant Topoisomerase I and buffer were from (Sigma-Aldrich). An amount of 2 μL of 10× topoisomerase I reaction buffer and 200 ng plasmid DNA and the indicated concentrations of compounds were incubated 30 min at 37 °C in Topo I buffer (500 mM Tris·HCl, pH 7.5, 1 M KCl, 10 mM dithiothreitol, 100 mM EDTA, 50 μg/mL acetylated bovine serum albumin (BSA)) in a total volume of 20 μL. The reaction was stopped by the addition of 5 μL of 5× loading dye (composition). Samples were electrophoresed on an 0.8% agarose gel without ethidium bromide for 2–3 h at 5 to 10 V/cm. The gel was stained with ethidium bromide and photographed with a UV transilluminator.

[2] = tested on: MCF-10 control cells (normal breast epithelium); experiment: Sulforhodamine B in vitro growth inhibition assay, MCF-10 control cells; type: cell-based; details: Homo sapiens, MCF10, 72 h of treatment, IC50 ± SD, non-tumoral cells
Procedure: (§1) For this purpose, a colorimetric sulforhodamine B assay was performed to quantify the cytotoxic effect through their respective IC50 values. Each compound’s serial dilutions (12.5, 25, 50, and 100 µM) were evaluated in triplicate. In our study, the human cancer cell lines used were MCF-7 (breast adenocarcinoma); HT-29 (colorectal adenocarcinoma); PC-3 (prostate adenocarcinoma); and MCF-10 control cells (normal breast epithelium). For comparative purposes, the literature IC50 values of daunorubicin and 5-fluorouracil (5-FU), measured in the same cell lines and under the same experimental conditions, were included. Similarly, drimenol (1) was included for comparative purposes.
(§2) The sulforhodamine B assay was used. Briefly, the cells were set up at 5 × 10^3 cells per well of a 96-well microplate for 18 h. Cells were incubated at 37 °C in a humidified 5% CO2/95% air mixture and treated with the compounds at different concentrations for 72 h. At the end of drug exposure, cells were fixed with 50% trichloroacetic acid at 4 °C. After washing with distilled water, cells were stained with 0.1% sulforhodamine B, dissolved in 1% acetic acid (50 μL/well) for 30 min, and, subsequently, washed with 1% acetic acid to remove the unbound stain. The protein-bound stain was solubilized with 100 μL of 10 mM unbuffered Tris base, and the cell density was determined using a […] (wavelength 540 nm). Results are expressed as IC50 values (μM) ± SD.

[3] = tested on: MCF-7 (breast adenocarcinoma); experiment: Sulforhodamine B in vitro growth inhibition assay, MCF-7; type: cell-based, human; details: for Selectivity Index (SI) MCF-10/MCF-7: IC50 in non-cancerogenic cell line / IC50 in cancer cell line
Procedure: as §1, §2

[4] = as above; type: cell-based, human; details: human; ratio of selectivity versus 5-FU; read-out: more selective than 5-FU in MCF-7
Procedure: as §1, §2

[5] = tested on: caspases 3 and 7 on MCF-7 cells; experiment: Caspase-Glo 3/7 assay; type: cell-based, human; details: 50 μM, 24 h
Procedure: To determine the cell death type induced by the most promising aryl-drimane esters, we evaluated their capacity to induce apoptosis through the activation of caspases 3 and 7 on MCF-7 cells. For this purpose, 6a, 6e, 6f, 8c, 8f, and 8g were incubated for 24 h on MCF-7 cells at a concentration of 50 μM, close to the IC50 values for cytotoxicity in most compounds. […] In summary, these drimane derivatives induced apoptosis in the MCF-7 cell line, showing a potential antitumoral effect.
The activity of caspase 3/7 in treated MCF-7 cells was determined using a Caspase-Glo-3/7 Assay kit (Promega, UK—Cat. No G8090). The caspase-Glo 3/7 assay is a homogenous, luminescent assay that measures caspase-3 and -7 activities, both key-players in apoptosis. […] Luminescence was proportional to the amount of caspase present. MCF-7 cells (1 × 10^4 cells per well) were grown in a 96-well white plate and were allowed to adhere overnight. The cells were then treated for 24 h with the synthesized compounds (50 µM), with the inclusion of a blank as a control. After treatment, the Caspase-Glo® 3/7 was prepared according to the manufacturer’s guidelines. Briefly, 100 μL of Caspase-Glo 3/7 reagent was added to 100 μL of culture medium containing the cells previously treated in each well. The content was mixed gently by placing the plate on a shaker for 30 s, and the plate was incubated at room temperature in the dark for 1 h before luminescence was read on a luminometer (Berthold Sirius Single Tube Luminometer, Pforzheim, Germany). Fold change in caspase activity was obtained by first subtracting the luminescence value for the blank well from every other value, and then, expressing the average luminescence of each treatment as a fold change with respect to the average luminescence of the negative control.

[6] = tested on: HT-29 (colorectal adenocarcinoma); experiment: Sulforhodamine B in vitro growth inhibition assay, HT-29; type: cell-based, human; details: for Selectivity Index (SI) MCF-10/HT-29: IC50 in non-cancerogenic cell line / IC50 in cancer cell line
Procedure: as §1, §2

[7] = tested on: PC-3 (prostate adenocarcinoma); experiment: Sulforhodamine B in vitro growth inhibition assay, PC-3; type: cell-based, human; details: for Selectivity Index (SI) MCF-10/PC-3: IC50 in non-cancerogenic cell line / IC50 in cancer cell line
Procedure: as §1, §2

[8] = as above; type: cell-based, human; details: human; ratio of selectivity versus 5-FU; read-out: more selective than 5-FU in PC-3
Procedure: as §1, §2

[9] = tested on: PC-3 (prostate adenocarcinoma); details: literature value, same experimental conditions; cited from earlier work
[10] = tested on: MCF-10 control cells (normal breast epithelium); details: literature value, same experimental conditions; cited from earlier work
[11] = tested on: HT-29 (colorectal adenocarcinoma); set-up: method as in PMID 25412045; details: literature value, same experimental conditions; cited from earlier work
[12] = tested on: MCF-7 (breast adenocarcinoma); details: literature value, same experimental conditions; cited from earlier work

| IC50 ([3]; Homo sapiens, MCF7, sulforhodamine B assay, 72 h of treatment, IC50 ± SD) [µM] | IC50 ([6]; Homo sapiens, HT-29, sulforhodamine B assay, 72 h of treatment, IC50 ± SD) [µM] | IC50 ([7]; Homo sapiens, sulforhodamine B assay, 72 h of treatment, IC50 ± SD) [µM] | SMILES | inhibition of TOP1-induced DNA relaxation [1] | IC50 [2] [µM] | Selectivity Index (SI) MCF-10/MCF-7 [3] | selectivity ratio at 72 h [4] | caspases-3/7 activity over the control [5] | Selectivity Index (SI) MCF-10/HT-29 [6] | Selectivity Index (SI) MCF-10/PC-3 [7] | selectivity ratio at 72 h [8] | IC50 [9] [µM] | IC50 [10] [µM] | IC50 [11] [µM] | IC50 [12] [µM] |
| --- | --- | --- | --- | --- | --- | --- | --- | --- | --- | --- | --- | --- | --- | --- | --- |
| 33.7 ± 1.3 | 56.9 ± 4 | 85.5 ± 7.1 | CC1=C(C(=O)Oc2cc(C)cc(O)c2)[C@@]2(C)CCCC(C)(C)C2CC1 (stereo partly drawn) [6a, 3-Hydroxy-5-methylphenyl-(8aS)-2,5,5,8a-tetramethyl-3,4,4a,5,6,7,8,8a-octahydronaphthalene-1-carboxylate] | more prominent | 67.2 ± 6.3 | 2.0 | 100 | two-fold | 1.2 | 0.8 | 20 |  |  |  |  |
|  |  |  | COc1cccc2c1C(=O)c1c(O)c3c(c(O)c1C2=O)C[C@@](O)(C(C)=O)C[C@@H]3O[C@H]1C[C@H](N)[C@H](O)[C@H](C)O1 [Daunorubicin, reference compound] | modified the TOP1-induced DNA relaxation in a minor way than compounds 6a and 8c |  | 28 |  |  | 0.6 | 23 |  | 0.41 ± 0.04 | 9.32 ± 1.01 | 15.1 ± 0.5 | 0.33 ± 0.02 |
